The results in this text go back to patent US7368453B2, “Quinazolinone compounds with reduced bioaccumulation” (Chiron Corporation, priority 2003, dated 2008).

Where two headings read alike, the source gives them in different places.

A short description of this series: Tissue half-life (t1/2) and Cmax in plasma, brain, kidney and liver after oral administration to CD-1 mice. It is filed as in vivo, mouse. As to conditions: for half-life: male, mouse. The method, then:
In vivo studies were conducted to observe the effect of the compounds of the invention in the subject animal. Male CD-1 mice, body weight of 20 grams at arrival, were used in these studies. Mice were given 30 mg/kg of compound in HPMC/Tween solution or suspension via oral gavage. Plasma, brain, and liver samples were collected at time periods of 1, 2, 4, 8, and 24 hours post dosing. One mouse was used per time point. Thus, a total of 5 mice were used for each compound tested. For sample collection, mice were euthanized with CO2. Blood samples were taken by cardiac puncture and kept on ice. Brain and liver samples were collected immediately after bleeding and the samples were kept on dry ice. For calculation of tissue half-lives (t1/2s), the terminal rate constant k was estimated by the absolute value of the slope of a log-linear regression of the terminal phase of the tissue concentration-time profile. The tissue half-life t1/2 is ln(2)/k.
The following table includes t1/2 data for plasma, brain, kidney, and liver obtained after oral administration.
Tissue Half-Life Data for Various Quinazolinone Compounds (PO)

The mark [1] stands for this setting: brain t1/2, 30 mg/kg oral gavage (PO), read-out: Half-Lives (h) Brain (converted).
[2] abbreviates: liver t1/2, 30 mg/kg oral gavage (PO), read-out: Half-Lives (h) Liver (converted).
Setting [3] is: plasma t1/2, 30 mg/kg oral gavage (PO), read-out: Half-Lives (h) Plasma (converted).
The mark [4] stands for this setting: kidney t1/2, 30 mg/kg oral gavage (PO), read-out: Half-Lives (h) Kidney (converted).

As for `C[C@@H]1[C@@H](N=C(Nc2ccc3c(=O)n(CCc4ccc(Br)cc4)c(-c4cnccn4)nc3c2)N2CCN[C@@H](C(F)F)C2)C[C@H]2C[C@@H]1C2(C)C` [Example 231, (3R)-N-{3-[2-(4bromophenyl)ethyl]-4-oxo-2-pyrazin-2-yl-3,4-dihydroquinazolin-7-yl]-3-(difluoromethyl)-N′-[(1S,2S,3S,5R)-2,6,6-trimethylbicyclo[3.1.1]hept-3-yl]piperazine-1-carboximidamide], the half-life runs as follows: under setting [1], 15 h; under setting [2], 4.6 h; under setting [3], 2.6 h.
Take `COc1ccc(CCn2c(-c3ccncc3)nc3cc(NC(=N[C@H]4C[C@H]5C[C@@H]([C@@H]4C)C5(C)C)N4CCN[C@@H](CF)C4)ccc3c2=O)c(F)c1` [Example 250]: the half-life was 3 h under setting [1], 5.7 h under setting [4], 8.8 h under setting [2] and 26 h under setting [3].
Regarding `COc1ccc(CCn2c(-c3cccnc3)nc3cc(N/C(=N/[C@H]4C[C@@H]5C[C@H]([C@@H]4C)C5(C)C)N4C[C@@H](C)N(O)[C@@H](C)C4)ccc3c2=O)c(F)c1` [Example 296, (3R,5S)-N-[3-{2-[2-fluoro-4-(methyloxy)phenyl]ethyl}-4-oxo-2-(3-pyridinyl)-3,4-dihydro-7-quinazolinyl]-4-hydroxy-3,5-dimethyl-N′-[(1R,2S,3S,5S)-2,6,6-trimethylbicyclo[3.1.1]hept-3-yl]-1-piperazinecarboximidamide], the half-life is, setting by setting: under setting [4], 3.3 h; under setting [2], 3.2 h; under setting [3], 4.9 h.
`C[C@@H]1[C@@H](N=C(Nc2ccc3c(=O)n(CCc4ccc(Cl)cc4)c(-c4cnccn4)nc3c2)N2CC(=O)N[C@@H](C)C2)C[C@H]2C[C@@H]1C2(C)C` [Example 222, (3S)-N-{3-[2-(4-chlorophenyl)ethyl]-4-oxo-2-pyrazin-2-yl-3,4-dihydroquinazolin-7-yl}-3-methyl-5-oxo-N′-[(1S,2S,3S,5R)-2,6,6-trimethylbicyclo[3.1.1]hept-3-yl]piperazine-1-carboximidamide]: the half-life was 8 h under setting [1], 2.7 h under setting [2] and 1.1 h under setting [3].
Regarding `COc1ccc(CCn2c(-c3cnccn3)nc3cc(NC(=N[C@H]4C[C@H]5C[C@@H]([C@@H]4C)C5(C)C)N4CCN[C@@H](CF)C4)ccc3c2=O)c(F)c1` [Example 251, (3R)-N-{3-[2-(2-fluoro-4-methoxyphenyl)ethyl]-4-oxo-2-pyrazin-2-yl-3,4-dihydroquinazolin-7-yl}-3-(fluoromethyl)-N′-[(1S,2S,3S,5R)-2,6,6-trimethylbicyclo[3.1.1]hept-3-yl]piperazine-1-carboximidamide], the half-life under setting [1] is 5.4 h, the half-life under setting [4] was 8.6 h, the half-life under setting [2] is 6.8 h and the half-life under setting [3] is 4 h.
Take `COc1ccc(CCn2c(-c3cccnc3)nc3cc(NC(=N[C@H]4C[C@H]5C[C@@H]([C@@H]4C)C5(C)C)N4CCN[C@@H](C(F)F)C4)ccc3c2=O)c(F)c1` [Example 220, (3R)-3-(difluoromethyl)-N-{3-[2-(2-fluoro-4-methoxyphenyl)ethyl]-4-oxo-2-pyridin-3-yl-3,4-dihydroquinazolin-7-yl}-N′-[(1S,2S,3S,5R)-2,6,6-trimethylbicyclo[3.1.1]hept-3-yl]piperazine-1-carboximidamide]: the half-life under setting [1] was 3.1 h, the half-life under setting [2] is 2.5 h and the half-life under setting [3] was 2.1 h.
As to `C[C@@H]1[C@@H](/N=C(/Nc2ccc3c(=O)n(CCc4ccc(Cl)cc4Cl)cnc3c2)N2CCNC(=O)C2)C[C@@H]2C[C@H]1C2(C)C` [Example 260, N-{3-[2-(2,4-dichlorophenyl)ethyl]-4-oxo-3,4-dihydroquinazolin-7-yl]-3-oxo-N′-[(1R,2S,3S,5S)-2,6,6-trimethylbicyclo[3.1.1]hept-3-yl]piperazine-1-carboximidamide], the half-life is, setting by setting: under setting [4], 7.3 h; under setting [3], 7.2 h.
As to `COc1ccc(CCn2c(-c3ncc[nH]3)nc3cc(NC(=N[C@H]4C[C@H]5C[C@@H]([C@@H]4C)C5(C)C)N4CCN[C@@H](CF)C4)ccc3c2=O)c(F)c1` [Example 255, (3R)-N-[3-[2-(2-fluoro-4-methoxyphenyl)ethyl]-2-(1H-imidazoi-2-yl)-4-oxo-3,4-dihydroquinazolin-7-yl]-3-(fluoromethyl)-N′-[(1S,2S,3S,5R)-2,6,6-trimethylbicyclo[3.1.1]hept-3-yl]piperazine-1-carboximidamide], the half-life is 25 h under setting [1], 7.3 h under setting [2] and 5.6 h under setting [3].
With “(3S)-N-{3-[2-(4-chlorophenyl)ethyl]-4-oxo-2-piperidin-3-yl-3,4-dihydroquinazolin-7-yl}-3-methyl-5-oxo-N′-[(1S,2S,3S,5R)-2,6,6-trimethylbicyclo[3.1.1]hept-3-yl]piperazine-1-carboximdamide [Example 241]”, the “Half-Lives (h) Brain” value (brain t1/2, 30 mg/kg oral gavage (PO)) was found to be 51 h. Further, the “Half-Lives (h) Liver” value (liver t1/2, 30 mg/kg oral gavage (PO)) worked out at 17 h. Moreover, the “Half-Lives (h) Plasma” value (plasma t1/2, 30 mg/kg oral gavage (PO)) amounted to 21 h.
As to `COc1ccc(CCn2c(-c3cccnc3)nc3cc(NC(=N[C@H]4C[C@H]5C[C@@H]([C@@H]4C)C5(C)C)N4CCN[C@@H](CF)C4)ccc3c2=O)c(F)c1` [Example 248, (3R)-N-{3-[2-(2-fluoro-4-methoxyphenyl)ethyl]-4-oxo-2-pyridin-3-yl-3,4-dihydroquinazolin-7-yl}-3-(fluoromethyl)-N′-[(1S,2S,3S,5R)-2,6,6-trimethylbicyclo[3.1.1]hept-3-yl]piperazine-1-carboximidamide], the half-life is 14 h under setting [1], 11 h under setting [4], 6.2 h under setting [2] and 5.3 h under setting [3].
For `COc1ccc(CCn2c(-c3cccnc3)nc3cc(NC(=N[C@H]4C[C@H]5C[C@@H]([C@@H]4C)C5(C)C)N4CCN(CC#N)[C@@H](C)C4)ccc3c2=O)c(F)c1` [Example 247, (3S)-4-(cyanomethyl)-N-{3-[2-(2-fluoro-4-methoxyphenyl)ethyl]-4-oxo-2-pyridin-3-yl-3,4-dihydroquinazolin-7-yl}-3-methyl-N′-[(1S,2S,3S,5R)-2,6,6-trimethylbicyclo[3.1.1]hept-3-yl]piperazine-1-carboximidamide] the same measures were 12 h, 11 h, 8 h and 18 h.
In the case of `COc1ccc(CCn2c(-c3cccnc3)nc3cc(N/C(=N/C4C[C@H]5C[C@@H]([C@@H]4C)C5(C)C)N4CCN(C#N)[C@@H](C)C4)ccc3c2=O)c(F)c1` (stereo partly drawn) [Example 246], the half-life was 5.8 h under setting [1], 3.1 h under setting [4], 18 h under setting [2] and 5.7 h under setting [3].
Consider `COc1ccc(CCn2c(CN3CCN(C)CC3)nc3cc(NC(=N[C@H]4C[C@H]5C[C@@H]([C@@H]4C)C5(C)C)N4CC(=O)N[C@@H](C)C4)ccc3c2=O)c(F)c1` [Example 239, (3S)-N-{3-[2-(2-fluoro-4-methoxyphenyl)ethyl]-2-[(4-methylpiperazin-1-yl)methyl]-4-oxo-3,4-dihydroquinazolin-7-yl}-3-methyl-5-oxo-N-[(1S,2S,3S,5R)-2,6,6-trimethylbicyclo[3.1.1]hept-3-yl]piperazine-1-carboximidamide], for which the half-life under setting [1] is 3.6 h and the half-life under setting [3] was 4.5 h.
